Experimental data from ChEMBL document CHEMBL6115029, “Discovery of Daraxonrasib (RMC-6236), a Potent and Orally Bioavailable RAS(ON) Multi-selective, Noncovalent Tri-complex Inhibitor for the Treatment of Patients with Multiple RAS-Addicted Cancers” (J Med Chem, 2025).

What was measured:
Mus musculus = assay: In vivo inhibition of MAPK signaling pathway in female BALB/c nude mouse xenografted with human MIA PaCa-2 cells harboring KRAS G12C/G12C mutant assessed as reduction in DUSP6 mRNA level in tumor at 3 to 10 mg/kg, po administered as single dose and measured upto 48 hrs by qPCR analysis; assay type: functional, organism-based; details: dose 3-10 mg/kg
[1] = Clearance in female BALB/c mouse blood at 1 mg/kg, iv measured after 24 hrs by LC-MS/MS analysis; assay type: ADME, organism-based
ASPC1 = assay: Cytotoxicity against human ASPC1 cells harboring KRAS G12D mutant cultured as 2D cells assessed as reduction in cell viability incubated for 120 hrs by CellTiter-Glo luminescence assay; assay type: functional, cell-based; details: ASPC1, 120 h
MIA PaCa-2 = assay: Antitumor activity against human MIA PaCa-2 cells harboring KRAS G12C/G12C mutant xenografted in female BALB/c mouse model assessed as reduction in tumor volume administered orally as once daily dose for 28 days; assay type: functional, cell-based; details: dose 3-25 mg/kg, route po, time 28.0 day

- clearance [1]: 8.33 mL/min/kg
SMILES: CCn1c(-c2cc(N3CCN(C)CC3)cnc2[C@H](C)OC)c2c3cc(ccc31)-c1csc(n1)C[C@H](NC(=O)[C@H]1C[C@@H]1C)C(=O)N1CCC[C@H](N1)C(=O)OCC(C)(C)C2
- inhibition (Mus musculus): Not active; Pathway Reactivation Observed
- EC50 (ASPC1): 3.1 nM
- Activity (MIA PaCa-2): Dose-dependent-effect
